Reference: ChEMBL document CHEMBL1152238, “Perylene side chains modulate G-quadruplex conformation in biologically relevant DNA sequences” (Bioorg Med Chem, 2008)
pEC50: −log10 of the molar value. Active and inactive are the calls of the source. The calls are words filed in the database; no cut-off is given here.

Assays:
[1] = Binding affinity to pu27 sequence of c-myc DNA assessed as G-quadruplex stabilization at 25 degC after 30 mins at 25 degC by electrophoretic mobility shift assay in presence of Li+ ions
Nucleic Acid [2] = experiment: Binding affinity to negatively supercoiled Escherichia coli pBR322 DNA assessed as DNA intercalation at 10 to 20 uM at pH 8 after 30 mins by DNA unwinding assay; assay type: nucleic-acid assay
[3] = Binding affinity to pu27 sequence of c-myc DNA assessed as G-quadruplex formation at 90 degC […] after 10 mins by electrophoretic mobility shift assay
Homo sapiens [4] = organism: Homo sapiens; experiment: Binding affinity to 2GGG sequence of human telomeric DNA assessed as G-quadruplex stabilization at 25 degC after 30 mins by electrophoretic mobility shift assay in presence of Li+ ions
Homo sapiens [5] = organism: Homo sapiens; experiment: Binding affinity to 1GGG sequence of human telomeric DNA assessed as G-quadruplex stabilization at 25 degC after 30 mins by electrophoretic mobility shift assay in presence of Li+ ions
[6] = Binding affinity to double stranded pu27 sequence of c-myc DNA assessed as melting temperature at 14 uM at 25 degC after 30 mins by circular dichroism spectroscopy in presence of K+ ions
[7] = Binding affinity to 1GGG sequence of human telomeric DNA assessed as intramolecular folding leading to G-quadruplex formation at 25 degC after 30 mins by electrophoretic mobility shift assay
Homo sapiens [8] = organism: Homo sapiens; experiment: Binding affinity to 4GGG sequence of human telomeric DNA assessed as G-quadruplex stabilization at 25 degC after 30 mins by electrophoretic mobility shift assay in presence of Li+ ions
Homo sapiens [9] = organism: Homo sapiens; experiment: Binding affinity to 2GGG sequence of human telomeric DNA assessed as G-quadruplex formation at 14 uM at 25 degC after 30 mins by circular dichroism spectroscopy
Homo sapiens [10] = organism: Homo sapiens; experiment: Binding affinity to 4GGG sequence of human telomeric DNA assessed as G-quadruplex formation at 14 uM at 25 degC after 30 mins during thermal cycling by circular dichroism spectroscopy
Homo sapiens [11] = organism: Homo sapiens; experiment: Binding affinity to double stranded 4GGG sequence of human telomeric DNA assessed as G-quadruplex formation at 0.1 to 10 uM at 37 degC after 24 hrs by electrophoretic mobility shift assay
Homo sapiens [12] = organism: Homo sapiens; experiment: Binding affinity to 4GGG sequence of human telomeric DNA assessed as melting temperature at 14 uM at 25 degC after 30 mins by circular dichroism spectroscopy in presence of K+ ions
Homo sapiens [13] = organism: Homo sapiens; experiment: Binding affinity to 1GGG sequence of human telomeric DNA assessed as G-quadruplex formation at 14 uM at 25 degC after 30 mins by circular dichroism spectroscopy
Homo sapiens [14] = organism: Homo sapiens; experiment: Binding affinity to 4GGG sequence of human telomeric DNA assessed as G-quadruplex formation at 14 uM at 25 degC after 30 mins by circular dichroism spectroscopy in presence of K+ ions
[15] = Binding affinity to 2GGG sequence of human telomeric DNA assessed as intramolecular folding leading to G-quadruplex formation at 25 degC after 30 mins by electrophoretic mobility shift assay
Nucleic Acid [16] = experiment: Binding affinity to negatively supercoiled Escherichia coli pBR322 DNA assessed as DNA intercalation at 20 to 50 uM at pH 6 after 30 mins by DNA unwinding assay; assay type: nucleic-acid assay
Homo sapiens [17] = organism: Homo sapiens; experiment: Binding affinity to 42GGG sequence of human telomeric DNA assessed as G-quadruplex formation at 90 degC after 10 mins by electrophoretic mobility shift assay
Homo sapiens [18] = organism: Homo sapiens; experiment: Binding affinity to 42GGG sequence of human telomeric DNA assessed as G-quadruplex formation at 25 degC upto 20 uM after 30 mins by electrophoretic mobility shift assay
[19] = Binding affinity to pu27 sequence of c-myc DNA assessed as intramolecular folding leading to G-quadruplex formation at 25 degC after 30 mins by electrophoretic mobility shift assay
Homo sapiens [20] = organism: Homo sapiens; experiment: Binding affinity to unfolded 4GGG sequence of human telomeric DNA assessed as G-quadruplex formation at 25 degC by circular dichroism spectroscopy in presence of Li+ ions
Escherichia coli = experiment: Binding affinity to negatively supercoiled Escherichia coli pBR322 DNA assessed as self-aggregation at 10 to 20 uM at 37 degC after 30 mins by DNA unwinding assay
Homo sapiens [21] = organism: Homo sapiens; experiment: Binding affinity to 4GGG sequence of human telomeric DNA assessed as intramolecular folding leading to G-quadruplex formation at 25 degC after 30 mins by electrophoretic mobility shift assay
Homo sapiens [22] = organism: Homo sapiens; experiment: Binding affinity to 4GGGtail sequence of human telomeric DNA assessed as G-quadruplex formation at 0.1 to 10 uM at 37 degC after 24 hrs by electrophoretic mobility shift assay
[23] = Binding affinity to double stranded pu27 sequence of c-myc DNA assessed as intramolecular folding leading to G-quadruplex formation at 0.1 to 10 uM at 37 degC after 24 hrs by electrophoretic mobility shift assay
Homo sapiens [24] = organism: Homo sapiens; experiment: Binding affinity to 2GGG sequence of human telomeric DNA assessed as G-quadruplex formation at 25 degC upto 15 uM after 24 hr by electrophoretic mobility shift assay
Homo sapiens [25] = organism: Homo sapiens; experiment: Binding affinity to 2GGG sequence of human telomeric DNA assessed as stabilization of dimeric form of G-quadruplex DNA at 95 degC for 5 mins by electrophoretic mobility shift assay
Homo sapiens [26] = organism: Homo sapiens; experiment: Binding affinity to 2GGG sequence of human telomeric DNA assessed as G-quadruplex formation at 90 degC upto 15 uM after 10 mins by electrophoretic mobility shift assay
[27] = Binding affinity to double stranded pu27 sequence of c-myc DNA assessed as intramolecular folding leading to G-quadruplex formation at 0.1 to 10 uM at 95 degC after 24 hrs by electrophoretic mobility shift assay
Homo sapiens [28] = organism: Homo sapiens; experiment: Binding affinity to 2GGG sequence of human telomeric DNA assessed as G-quadruplex formation at 25 degC upto 15 uM after 30 mins by electrophoretic mobility shift assay
[29] = Binding affinity to double stranded pu27 sequence of c-myc DNA assessed as G-quadruplex formation at 14 uM at 25 degC after 30 mins during thermal cycling by circular dichroism spectroscopy

Activity [1] | Activity (Nucleic Acid [2]) | Activity [3] | Activity (Homo sapiens [4]) | Activity (Homo sapiens [5]) | pEC50 [7] | Activity (Homo sapiens [8]) | Activity (Homo sapiens [10]) | Activity (Homo sapiens [11]) | Activity (Homo sapiens [14]) | pEC50 [15] | Activity (Nucleic Acid [16]) | Structure (SMILES) | Activity (Homo sapiens [17]) | Activity (Homo sapiens [18]) | Activity [19] | Activity (Homo sapiens [20]) | Activity (Escherichia coli) | Activity (Homo sapiens [21]) | Activity (Homo sapiens [22]) | Activity (Homo sapiens [24]) | further results
Active | Active | inactive | Active | Active | 4.97 | Active | Active | inactive | Active | 4.92 | Active | C[N+](C)(C)CCN1C(=O)c2ccc3c4ccc5c6c(ccc(c7ccc(c2c37)C1=O)c64)C(=O)N(CC[N+](C)(C)C)C5=O | – | – | – | – | – | – | – | – | Tm [6]: 83 °C; Activity (Homo sapiens [9]): inactive; Tm (Homo sapiens [12]): 64 °C; Activity (Homo sapiens [13]): inactive
Active | Active | inactive | Active | Active | 4.96 | Active | inactive | inactive | Active | 5.42 | Active | O=C1c2ccc3c4ccc5c6c(ccc(c7ccc(c2c37)C(=O)N1CCNCCO)c64)C(=O)N(CCNCCO)C5=O | Active | Active | – | – | – | – | – | – | –
Active | – | inactive | Active | Active | 4.60 | Active | inactive | inactive | Active | 4.70 | Active | c1cc2c3ccc4c5c(ccc(c6ccc7c(c1CN(CCN1CCCCC1)C7)c26)c53)CN(CCN1CCCCC1)C4 | inactive | inactive | Active | Active | inactive | Active | – | – | –

Structure (SMILES) | Activity [1] | Activity (Nucleic Acid [2]) | Activity [3] | Activity (Homo sapiens [4]) | Activity (Homo sapiens [5]) | pEC50 [7] | Activity (Homo sapiens [8]) | Activity (Homo sapiens [10]) | Activity (Homo sapiens [11]) | Activity (Homo sapiens [14]) | pEC50 [15] | Activity (Nucleic Acid [16]) | Activity (Homo sapiens [17]) | Activity (Homo sapiens [18]) | Activity [19] | Activity (Homo sapiens [20]) | Activity (Escherichia coli) | Activity (Homo sapiens [21]) | Activity (Homo sapiens [22]) | Activity (Homo sapiens [24]) | further results
CN(C)CCN1C(=O)c2ccc3c4ccc5c6c(ccc(c7ccc(c2c37)C1=O)c64)C(=O)N(CCN(C)C)C5=O | Active | Active | inactive | Active | Active | 5.06 | Active | inactive | inactive | Active | 5.40 | Active | Active | Active | – | – | – | – | inactive | Active | Activity [23]: inactive; Activity (Homo sapiens [25]): Active; Activity (Homo sapiens [26]): Active; Activity [27]: inactive; Activity (Homo sapiens [28]): Active; Activity [29]: Active
O=C1c2ccc3c4ccc5c6c(ccc(c7ccc(c2c37)C(=O)N1CCN1CCCCC1)c64)C(=O)N(CCN1CCCCC1)C5=O | Active | – | inactive | Active | Active | < 4.00 | Active | inactive | inactive | Active | 4.05 | Active | inactive | inactive | Active | Active | inactive | Active | Active | Active | Activity (Homo sapiens [25]): Active; Activity (Homo sapiens [26]): Active; Activity (Homo sapiens [28]): Active; Activity [29]: Active
